{"source": "patent US20220401460A1", "about": "“MODULATING RESISTANCE TO BCL-2 INHIBITORS” (Dana-Farber Cancer Institute, Inc., priority 2018, published 2022)", "key": {"[1]": {"tested_on": "OCI-Ly1-S cells", "experiment": "Cell Titer-Glo viability assay and Chou-Talalay synergy analysis, parental OCI-Ly1-S cells", "assay_type": "cell-based, human"}, "[2]": {"tested_on": "OCI-Ly1-R cells", "experiment": "Cell Titer-Glo viability assay, venetoclax-resistant OCI-Ly1-R cells", "assay_type": "cell-based, human", "details": "for restoration of venetoclax sensitivity: combination with venetoclax, OCI-Ly1-R cells"}, "[3]": {"tested_on": "ID3 knockout OCI-Ly1 cells", "experiment": "Viability of single-cell clones from ID3 knockout OCI-Ly1 cells", "assay_type": "cell-based, human", "details": "single cell clones from ID3 knockout line, viability at 24 hours", "method": "(§1) Cell viability assay. The Cell Titer-Glo Luminescent Cell Viability Assay (Promega) was used to determine the relative number of viable cells after drug treatment. 0.2×10^6 cells/mL were seeded in a 24 well-plate and treated with drugs for 24 or 48 hours. The viability assay was conducted using the manufacturer's protocol after treatment. Values were normalized to DMSO-treated cells. Plates were read on a SpectraMax M3 reader (Molecular Devices).\nSingle-cell cloning of the ID3 knockout. OCI-Ly1 cells was performed using […] dilution strategy. Cells from the bulk ID3 OCI-Ly1 were seeded at a concentration of 0.5 cells/well in a 96-well plate (5 plates per cell line). To investigate the presence of mutations, 6 clones per sgRNA were analyzed by PCR and Sanger sequencing using primers flanking the target sites for the sgRNAs (Forward primer: 5′-[…]-3′ (SEQ ID NO:1); Reverse:5′-[…]-3′ (SEQ ID NO:2)). The absence of ID3 protein were confirmed in clones harboring loss-of-function mutations by western blot (FIG. 8d). Three different knockout single-cell clones for each sgRNA were used for further functional studies."}, "[4]": {"tested_on": "CLL patients", "experiment": "CLL patients treated with venetoclax in clinical trials (response, progression)", "assay_type": "in vivo, human", "excerpt": "Human samples. Genomic DNA was isolated (DNAeasy Blood and Tissue Kit, Qiagen) from specimens collected from CLL patients enrolled on clinical trials of venetoclax treatment (NCT01328626, NCT02141282), approved by and conducted in accordance with the principles of the Declaration of Helsinki and with the approval of the Institutional Review Boards (IRB) of the University of Texas/MD Anderson Cancer Center (MDACC; Patients 1, 3, 4) or of Dana-Farber Cancer Institute (DFCI; Patient 2, 5, 6). Blood and/or tissue tumor samples were collected at baseline, before initiation of venetoclax therapy, and at relapse or progression on venetoclax."}, "[5]": {"tested_on": "OCI-Ly1-S cells", "experiment": "Seahorse oxygen consumption (OCR) and extracellular acidification rate (ECAR), OCI-Ly1-S", "assay_type": "cell-based, human", "method": "Measurement of oxygen consumption and extracellular acidification rate. For each condition, 1.25×10^5 cells were counted and plated on a Seahorse plate coated with Cell-Tak (Corning Life Sciences) in Seahorse XF DMEM media (Agilent). OCR and ECAR were recorded using a Seahorse XF96 Analyzer (Agilent) for 24 consecutive measurements. OCR is measured before and after the addition of inhibitors to assess mitochondrial function by deriving several parameters of mitochondrial respiration: (i) basal respiration, (ii) ATP-linked respiration and proton leak respiration (after 3 μM oligomycin [Sigma], a complex V inhibitor) and (iii) maximal respiration (after 1 μM carbonyl cyanide m-chlorophenyl hydrazine (CCCP) [Sigma], a protonophore).\nTo measure the effect of venetoclax on OCR/ECAR, cells were pre-treated for 1 h with […] of zVAD-FMK (Abcam) or left untreated and OCR/ECAR were recorded for 4 measurements before injection of venetoclax at a final concentration of 100 nM. DMSO injection was used as control."}, "[6]": {"tested_on": "knockout and overexpression OCI-Ly1 cell lines", "experiment": "Viability/growth of single-gene knockout and overexpression OCI-Ly1 cell lines", "assay_type": "cell-based, human", "details": "individual knockout cell lines vs lines transduced with 2 non-targeting control sgRNAs; P<0.05", "method": "as §1\nCloning of sgRNA vectors. […]\nGeneration of engineered cell lines. […] As confirmation that the engineered cell lines expressed the expected alterations, Applicants: (i) evaluated the expression of the targeted protein by western-blotting (FIG. 6d), and (ii) for the CRISPR-Cas9 engineered cell lines, performed targeted DNA sequencing for the CRISPR target sites before and after 2 weeks of exposure to venetoclax (100 nM), and assessed the proportion of frameshift indels (FIG. 6g). […] Following PCR, samples were purified with Agencourt AMPure XP beads (Beckman Coulter) and quantified on a Bioanalyzer (Agilent) with High Sensitivity DNA chips. Sample libraries were diluted to 4 nM, pooled, and ran on the Illumina MiSeq platform using single-end sequencing with the following parameters: read 1: 296nt, index 1: 6nt."}, "[7]": {"details": "6 CLL patients progressing on venetoclax"}}, "note": "Residues, ends and D or L forms follow the SMILES beside them. *: point of attachment. Cbz = O=C(OCc1ccccc1)*; CH2F = FC*"}
{"smiles": "Cc1c(-c2c(-c3ccc(F)o3)sc3ncnc(O[C@H](Cc4ccccc4OCc4ccnn4CC(F)(F)F)C(=O)O)c23)ccc(OCCN2CCN(C)CC2)c1Cl", "note": "[S63845]", "values": [{"measurement": "combination index (synergy with venetoclax)", "setting": "[1]; combination with venetoclax, OCI-Ly1-S cells, Chou-Talalay method", "value": "< 1"}, {"measurement": "synergy with venetoclax", "setting": "[2]; OCI-Ly-R cells", "value": "synergized"}, {"measurement": "restoration of venetoclax sensitivity", "setting": "[2]", "value": "restore venetoclax sensitivity"}]}
{"smiles": "CC[C@H]1/C=C/C=C/C[C@@H](C)[C@H](O)[C@@](C)(O)C(=O)[C@@H](C)[C@H](O)[C@@H](C)C(=O)[C@@H](C)[C@H](O)[C@@H](C)/C=C/C(=O)O[C@@H]2[C@H](C)[C@H](CC1)O[C@]1(CC[C@H](C)[C@H](C[C@@H](C)O)O1)[C@H]2C", "note": "[oligomycin]", "values": [{"measurement": "sensitivity to the combination with venetoclax vs control cells", "setting": "[3]", "value": "more sensitive"}, {"measurement": "restoration of venetoclax sensitivity", "setting": "[2]", "value": "restore sensitivity to venetoclax"}]}
{"smiles": "CC1(C)CCC(CN2CCN(c3ccc(C(=O)NS(=O)(=O)c4ccc(NCC5CCOCC5)c([N+](=O)[O-])c4)c(Oc4cnc5[nH]ccc5c4)c3)CC2)=C(c2ccc(Cl)cc2)C1", "note": "[venetoclax]", "values": [{"measurement": "IC50", "setting": "[1]; Homo sapiens, parental OCI-Ly1-S cells", "value": 4, "unit": "nM"}, {"measurement": "median time to relapse", "setting": "[4]; [7]", "value": 16.4, "unit": "months"}, {"measurement": "range of time to relapse", "setting": "[4]; [7]", "value": "5.1-22.8 months"}, {"measurement": "Time to progression (months)", "setting": "[4]; Patient 1, daily dose 400 mg", "value": 22.8, "unit": "months"}, {"measurement": "Time to progression (months)", "setting": "[4]; Patient 2, daily dose 400 mg", "value": 7.1, "unit": "months"}, {"measurement": "Time to progression (months)", "setting": "[4]; Patient 3, daily dose 400 mg", "value": 16.4, "unit": "months"}, {"measurement": "Time to progression (months)", "setting": "[4]; Patient 4, daily dose 400 mg", "value": 5.1, "unit": "months"}, {"measurement": "Time to progression (months)", "setting": "[4]; Patient 5, daily dose 400 mg", "value": 8.2, "unit": "months"}, {"measurement": "Time to progression (months)", "setting": "[4]; Patient 6, daily dose 1200 mg then 400 mg", "value": 22.8, "unit": "months"}, {"measurement": "decrease in oxygen consumption", "setting": "[5]; OCI-Ly1-S cells, within 20 minutes after drug exposure, venetoclax 100 nM", "value": 2, "unit": "fold"}, {"measurement": "IC50", "setting": "[2]; Homo sapiens, OCI-Ly1-R cells generated by chronic in vitro drug exposure", "value": 1000, "unit": "nM"}, {"measurement": "median increase in IC50", "setting": "[6]", "value": 2.1, "unit": "fold"}]}
{"smiles": "COC(=O)C[C@H](NC(=O)[C@H](C)NC(=O)[C@@H](NC(=O)OCc1ccccc1)C(C)C)C(=O)CF", "note": "[zVAD] (Cbz-Val-Ala-Asp(OMe)-CH2F)", "values": [{"measurement": "prevention of venetoclax impact on OXPHOS", "setting": "[5]; 1 h pre-treatment with zVAD-FMK before venetoclax", "value": "not fully prevented"}]}
